Laboratory results published in patent EP0383941B1, “ULTRAVIOLET ABSORBING COSMETIC” (priority 1988, dated 1990).
Values after ≈ are worked out from the molar mass of the structure shown.

What was measured:
[1] = Measurement of water resistance (hot water treatment of aqueous suspension, extinction coefficient and TG-DTA); assay type: physicochemical; conditions: for Water resisting stability: 10 % by weight aqueous suspension, 80°C for 2 hours, change of molecular extinction coefficient in λmax; for Change of TG-DTA: before and after hot water treatment (80°C, 2 hours)
Method: Fifty milliliters each of aqueous suspensions containing 10 % by weight of a cyclic imino ester and a comparative sample, respectively was prepared, and allowed to stand in a constant temperature bath of 80°C for 2 hours.
Then, 50 ml of isopropyl alcohol was added thereto, and the water and the solvent were removed using a rotary evaporator, and the residue was taken out.
This residue was measured for molecular extinction coefficient in λmax according to a similar manner to Example 1, and its change was used as a measure of water resistance. [formula] Further, the samples before and after hot water treatment were measured for TG-DTA, and its change was examined.

[2] = Measurement of ultraviolet ray-absorbing ability (spectrophotometer); assay type: physicochemical; conditions: 1,1,2,2-tetrachloroethane, 5x10⁻⁴ g/100 ml, optical path length 1 cm; for E 1%, 1cm: at λmax
Method: There were measured ultraviolet ray-absorbing ability of the cyclic imino esters used in accordance with the invention and a commercially available known ultraviolet absorber (4-t-butyl-4'-methoxy-dibenzoylmethane).
The measurement was carried out using 1,1,2,2-tetrachloroethane as a solvent and Hitachi 330 type spectrophotometer under the conditions of an ultraviolet absorber concentration of 5x10⁻⁴ g/100 ml and an optical path length of 1 cm.

[3] = Measurement of solubility in water, alcohols and oily cosmetic bases; assay type: physicochemical; conditions: 15°C
skin [4] = assay: Primary irritation to the skin; assay type: in vivo, white rabbits; conditions: for Formation of erythema or eschar: animals judged +: grade + (Well defined erythema)
Method: This experiment was carried out according to the following method. • 1) Eight white rabbits (weighing 2.0 to 3.0 kg) whose fur on the back was cut are grouped into two groups each consisting of 4 animals. Animals of one group (blank) were fixed as they were in braces and those of the other group were fixed in braces after excoriation at the site to be tested. • 2) Vaseline base containing 25 % by weight of a test substance was applied onto a lint cloth, and the resulting lint cloth was stuck on the surface of skin. • 3) Whole body of the rabbit was wrapped with moisture-proof rubber for dental use to prevent movement of the stuck lint cloth and at the same time evaporation of volatile substance. • 4) Twenty-four hours thereafter the lint cloth was removed and the test site was observed. Second and third observations are made 48 and 72 hours thereafter, respectively. The average of evaluation after 24 and 72 hours was calculated as a final evaluation point. • 5) Evaluation was made by independently judging formation of erythema and eschar, and edema, specifically according to the following criteria.

Microorganisms = assay: Mutagenicity test using microorganisms; assay type: cell-based; conditions: test on mutagenicity using microorganisms
Method: This experiment was carried out based on "About Test on Mutagenicity Using Microorganisms", a notification of the Director of the Standard Bureau, the Ministry of Labor, Japan dated May 18, 1985.

skin [5] = assay: Allergic contact dermatitis test (Guinea Pig Maximization Test); set-up: species or system white female guinea pigs; conditions: in vivo
Method: Method: This experiment was carried out as follows based on "Guinea Pig Maximization Test" (Magnusson, B. & Klingman, A. M: Usefulness of guinea pig tests for detection of contact sensitizers, In Advances in Modern Toxicology. Vol 4, pp 551-560 Hemisphere Publishing Co., Washington & London, 1977) 1) The fur on the scapula of white female guinea pigs weighing 300 to 500 g was cut in an area of 4 x 6 cm. 2) Each sample was intradermally injected into a guinea pig at the positions (1), (2) and (3) shown in Figure 1 with • (1) 0.1 ml of Freund's complete adjuvant alone; • (2) 0.1 ml of test substance alone; or • (3) sample w/o emulsified with 0.1 ml of Freund's complete adjuvant 3) The fur at the sites was cut one week after the intradermal injection, and a […] test substance, 10 % sodium lauryl sulfate (vaseline base), was applied thereon. 4) Vaseline containing 25 % by weight of the test substance was spread on a filter paper of 2 x 4 cm and occlusive pasting was conducted for 48 hours. 5) The fur at the side of the body of a guinea pig shown at (4) in Figure 1 was cut in an area of 5 x 5 cm two weeks after the occlusive pasting. 6) The test substance was applied onto a filter paper of 2 x 2 cm, and occlusive pasting was conducted for 24 hours. 7) Measurement was carried out according to the following criterion: […]

skin [6] = assay: Contact photosensitization (Adjuvant-Strip method); assay type: in vivo, Hartley white guinea pigs; conditions: for Contact photosensitization (result in words): Adjuvant-Strip method
Method: (1) Hartley white guinea pigs weighing 370 to 420 g were used. (2) The fur at the cervical part of guinea pigs was cut by an eletric hair clipper, and the part was further shaved with an electric razor. (3) A section of 2 x 4 cm was set at the cervical part, and 0.1 ml portions of Freund's complete adjuvant w/o emulsified with sterilized distilled water were intradermally injected at the four corners. (4) The skin of the section of 2 x 4 cm was subjected to stripping with cellophane tape to cause light erythema. […] (6) After the application, 6 lamps in total, namely 3 sunlamps (Toshiba FL-40SE30) and 3 black lights (Toshiba FL-40SBLB) were arranged in parallel, 70 minutes irradiation was carried out at a distance of 10 cm from the light sources. Total energy of the irradiation at this time was 12.0 J/cm². (7) The procedures (4), (5) and (6) were repeated 5 times every other day. […] (9) 24 Hours after the epilation, 4 sections each of 1.5 cm x 1.5 cm were set in two rows using the medium line as a symmetry axis. (10) This site was coated with the test substance and irradiated for 70 minutes at a distance of 10 cm from 6 black lights. […] (11) Judgement was made 24 and 48 hours after the irradiation according to the following criterion: [Judgement criterion]

[7] = Vaseline base containing 25 % by weight, 4 rabbits
[8] = grade +++ (Severe erythema to slight formation of eschar), Vaseline base containing 25 % by weight, 4 rabbits
[9] = 3 = Erythema in middle to heavy degree, guinea pigs

In the case of O=c1oc(-c2ccc3cc(-c4nc5ccccc5c(=O)o4)ccc3c2)nc2ccccc12, the Water resisting stability [1] is reported as 96.7%.

For O=c1oc(-c2ccc(-c3ccc(-c4nc5ccccc5c(=O)o4)cc3)cc2)nc2ccccc12, the “λmax (maximum absorption wavelength)” value [2] was 348 nm, the “λs (absorption intiation wavelength)” value [2] was 395 nm and the “E 1%, 1cm” value [2] was 1300. The Water resisting stability [1] was 97.6%.

Work on COc1ccc(C(=O)CC(=O)c2ccccc2C(=O)O)cc1 [4-methoxy-2'-sodium carboxylate-dibenzoylmethane, reference compound] yielded a Water resisting stability [1] of 52.0%.

With COc1ccc(C(=O)CC(=O)c2ccc(C(C)(C)C)cc2)cc1 [4-t-butyl-4'-methoxydibenzoylmethane, 4-t-butyl-4'-methoxy-dibenzoylmethane] the “λmax (maximum absorption wavelength)” value [2] was 360 nm, the “λs (absorption intiation wavelength)” value [2] was 400 nm and the “E 1%, 1cm” value [2] was 1040. The solubility ([3]; Water) was 0.0002 mg/mL (≈ 0.000644 mM), the solubility ([3]; organic solvent or mixture, Castor oil) was 96 mg/mL (≈ 309 mM) and the solubility ([3]; organic solvent or mixture, Ethanol) was 16 mg/mL (≈ 51.5 mM). The solubility ([3]; organic solvent or mixture, Glycerin) was 2.5 mg/mL (≈ 8.05 mM), the solubility ([3]; organic solvent or mixture, Isopropyl myristate) was 53 mg/mL (≈ 171 mM) and the solubility ([3]; organic solvent or mixture, Light liquid paraffin) was 8.5 mg/mL (≈ 27.4 mM). For the same compound, the solubility ([3]; organic solvent or mixture, Olive oil) was 19 mg/mL (≈ 61.2 mM), the Water resisting stability [1] was 89.4% and the “Change of TG-DTA” value [1] was “genera-tion of subpeak”.

For O=c1oc(-c2ccc(-c3nc4ccccc4c(=O)o3)cc2)nc2ccccc12 [A, 2,2'-p-phenylenebis(3,1-benzoxazin-4-one)], the “λmax (maximum absorption wavelength)” value [2] was 350 nm, the “λs (absorption intiation wavelength)” value [2] was 385 nm and the “E 1%, 1cm” value [2] was 1270. For the same compound, the Water resisting stability [1] was 96.9%, the “Change of TG-DTA” value [1] was “no change” and the “Formation of edema (animals)” value (skin [4]; rabbit, in vivo) was 0/4. For the same compound, the “Formation of erythema or eschar: animals judged ++” value (skin [4]; rabbit, in vivo) was 0/4, the “Formation of erythema or eschar: animals judged +++” value (“Formation … animals judged +++” below) (skin [4]; rabbit, in vivo) was 0/4 and the “Formation of erythema or eschar: animals judged -” value (skin [4]; rabbit, in vivo) was 4/4. The “Formation of erythema or eschar: animals judged ±” value (skin [4]; rabbit, in vivo) was 0/4, the Mutagenicity (Microorganisms) was “No mutagenicity was observed” and the “Judgement 0 (animals)” value (skin [5]) was 4/4. The “Judgement 1 (animals)” value (skin [5]) was 0/4, the “Judgement 2 (animals)” value (skin [5]) was 0/4 and the “Contact photosensitization (result in words)” value (“Contact photosensitization” below) (skin [6]; guinea pigs) was “not observed at all”. The “Formation of erythema, judgement 0 (animals)” value (skin [6]; guinea pig, in vivo) was 10/10, the “Formation of erythema, judgement 1 (animals)” value (skin [6]; guinea pig, in vivo) was 0/10 and the “Formation of erythema, judgement 2 (animals)” value (skin [6]; guinea pig, in vivo) was 0/10. The “Formation of erythema, judgement 3 (animals)” value (skin [6]; guinea pig, in vivo) was 0/10.

For O=c1oc(-c2ccc(-c3ccc(-c4nc5ccccc5c(=O)o4)cc3)cc2)nc2ccccc12 [B, 2,2'-(4,4'-diphenylene)bis(3,1-benzoxazin-4-one)], the “Formation of edema (animals)” value (skin [4]; [7]) was 0/4, the “Formation of erythema or eschar: animals judged +” value (skin [4]; [7]) was “Same as left” and the “Formation … animals judged +++” value (skin [4]; [8]) was “Same as left”. The Mutagenicity (Microorganisms) was “No mutagenicity was observed”, the “Formation of erythema, judgement 3 (animals)” value (skin [6]; [9]) was “Same as left” and the “Contact photosensitization” value (skin [6]; guinea pigs) was “not observed at all”.

For O=c1oc(-c2ccc3cc(-c4nc5ccccc5c(=O)o4)ccc3c2)nc2ccccc12 [C, 2,2'-(2,6-naphthylene)bis(3,1-benzoxazin-4-one)], the “λmax (maximum absorption wavelength)” value [2] was 354 nm, the “λs (absorption intiation wavelength)” value [2] was 400 nm and the “E 1%, 1cm” value [2] was 1070. For the same compound, the “Formation of edema (animals)” value (skin [4]; [7]) was 0/4, the “Formation of erythema or eschar: animals judged +” value (skin [4]; [7]) was “Same as left” and the “Formation … animals judged +++” value (skin [4]; [8]) was “Same as left”. The Mutagenicity (Microorganisms) was “No mutagenicity was observed”, the “Formation of erythema, judgement 0 (animals)” value (skin [6]; 0 = No erythema, 24 and 48 hours after irradiation, 10.2 J/cm², guinea pigs) was 9/10 and the “Formation of erythema, judgement 1 (animals)” value (skin [6]; 1 = Erythema in very light degree, guinea pigs) was 1/10. The “Formation of erythema, judgement 3 (animals)” value (skin [6]; [9]) was “Same as left” and the “Contact photosensitization” value (skin [6]; guinea pigs) was “Very slight contact photosensitization was observed”.
